The values below come from patent publication US6900219B2, “ABCA-1 elevating compounds” (CV Therapeutics, Inc., priority 2002, dated 2005).

The experiment concerns ABCA-1 gene. Kind of experiment: compounds tested and found to elevate cellular expression of the ABCA-1 gene (Examples 1-6; test not named). It is filed as cell-based. On the procedure: Activity testing is conducted as described in those patents and patent applications referenced above, and in the Examples below, and by methods apparent to one skilled in the art.
As to `CCOC(=O)CCN(C(=O)CCc1ccccc1)c1ccc(Br)cc1` [ethyl 3-[(4-bromophenyl)-N-(2-phenylethyl)carbonylamino]propanoate], the “cellular expression of the ABCA-1 gene” value is listed as “elevate cellular expression of the ABCA-1 gene”.

On to `CCOC(=O)CCN(C(=O)CCc1ccccc1)c1ccc(CC)cc1` [ethyl 3-[(4-ethylphenyl)-N-(2-phenylethyl)carbonylamino]propanoate], for which the “cellular expression of the ABCA-1 gene” value is reported as “elevate cellular expression of the ABCA-1 gene”.

On to `CCOC(=O)C1=C(NCCc2ccccc2)CCN(C(=O)c2ccc(-c3ccccc3)cc2)C1` [ethyl 4-[(2-phenylethyl)amino]-1-[(4-phenylphenyl)carbonyl]-1,2,5,6-tetrahydropyridine-3-carboxylate], for which the “cellular expression of the ABCA-1 gene” value is recorded as “elevate cellular expression of the ABCA-1 gene”.

Consider `CCOC(=O)c1ccc(NC(=O)Nc2ccccc2)cc1` [ethyl 4-[(phenylamino)carbonylamino]benzoate], for which the “cellular expression of the ABCA-1 gene” value is recorded as “elevate cellular expression of the ABCA-1 gene”.

Turning to `CCOC(=O)CC(=O)CSc1nnc(NC(=O)c2ccc(Cl)cc2)s1` [ethyl 4-{5-[(4-chlorophenyl)carbonylamino](1,3,4-thiadiazol-2-ylthio)}-3-oxobutanoate], the “cellular expression of the ABCA-1 gene” value is on record as “elevate cellular expression of the ABCA-1 gene”.

Consider `O=C(Nc1ncc(-c2ccccc2)s1)c1ccno1` [isoxazol-5-yl-N-(5-phenyl(1,3-thiazol-2-yl))carboxamide], for which the “cellular expression of the ABCA-1 gene” value is “elevate cellular expression of the ABCA-1 gene”.

Take `COC(=O)c1ccc(C(=O)NC2=NCCS2)cc1` [methyl 4-(N-(1,3-thiazolin-2-yl)carbamoyl)benzoate]: the “cellular expression of the ABCA-1 gene” value is “elevate cellular expression of the ABCA-1 gene”.

`COC(=O)c1ccc(C(=O)NC2=NC(=O)CS2)cc1` [methyl 4-[N-(4-oxo-1,3-thiazolin-2-yl)carbamoyl]benzoate]: the “cellular expression of the ABCA-1 gene” value is “elevate cellular expression of the ABCA-1 gene”.

Take `COC(=O)c1ccc(/N=C(\NC2CCCCC2)N2CCN(Cc3ccc4c(c3)OCO4)CC2)c(O)c1` [methyl 4-{(1E)-1-aza-2-[4-(2H-benzo[d]1,3-dioxolen-5-ylmethyl)piperazinyl]-2-(cyclohexylamino)vinyl}-3-hydroxybenzoate]: the “cellular expression of the ABCA-1 gene” value is given as “elevate cellular expression of the ABCA-1 gene”.

`Nc1c(C(=O)Oc2ccccc2)oc2nc3c(cc12)CCC3` [phenyl 3-amino-5,6,7-trihydrocyclopenta[1,2-b]furano[4,5-e]pyridine-2-carboxylate]: the “cellular expression of the ABCA-1 gene” value was “elevate cellular expression of the ABCA-1 gene”.

As to `O=C(NC1=NCCS1)c1ccccc1` [phenyl-N-(1,3-thiazolin-2-yl)carboxamide], the “cellular expression of the ABCA-1 gene” value is given as “elevate cellular expression of the ABCA-1 gene”.

For `O=C(NCCc1ccccn1)c1ccccc1` [phenyl-N-(2-(2-pyridyl)ethyl)carboxamide], the “cellular expression of the ABCA-1 gene” value is “elevate cellular expression of the ABCA-1 gene”.

For the compound `O=C1CSC(NC(=O)c2ccccc2)=N1` [phenyl-N-(4-oxo(1,3-thiazolin-2-yl))carboxamide], the “cellular expression of the ABCA-1 gene” value is listed as “elevate cellular expression of the ABCA-1 gene”.

In the case of `CCc1c(C(=O)NCC(C)C)cnn1-c1nc(-c2ccc(Br)cc2)cs1` [{1-[4-(4-bromophenyl)(1,3-thiazol-2-yl)]-5-ethylpyrazol-4-yl}-N-(2-methylpropyl)carboxamide], the “cellular expression of the ABCA-1 gene” value is “elevate cellular expression of the ABCA-1 gene”.

`CCCCCCNC(=O)c1cnn(-c2nc(-c3ccc(Br)cc3)cs2)c1CC` [{1-[4-(4-bromophenyl)(1,3-thiazol-2-yl)]-5-ethylpyrazol-4-yl}-N-hexylcarboxamide]: the “cellular expression of the ABCA-1 gene” value is on record as “elevate cellular expression of the ABCA-1 gene”.

`CCc1c(C(=O)N2CCN(C(=O)c3ccc4ccccc4c3)C(C)C2)cnn1-c1nc(-c2ccc(Cl)cc2)cs1` (centres unmarked) [{1-[4-(4-chloro-phenyl)-thiazol-2-yl]-5-ethyl-1H-pyrazol-4-yl}-[3-methyl-4-(naphthalene-2-carbonyl)-piperazin-1-yl]-methanone]: the “cellular expression of the ABCA-1 gene” value is “elevate cellular expression of the ABCA-1 gene”.

For `Cc1c(C(=O)NCc2ccccc2)cnn1-c1nc(-c2ccc(Cl)cc2)cs1` [{1-[4-(4-chlorophenyl)(1,3-thiazol-2-yl)]-5-methylpyrazol-4-yl}-N-benzylcarboxamide], the “cellular expression of the ABCA-1 gene” value is reported as “elevate cellular expression of the ABCA-1 gene”.

As to `Cc1c(C(=O)NC2CC2)cnn1-c1nc(C(C)(C)C)cs1` [{1-[4-(tert-butyl)(1,3-thiazol-2-yl)]-5-methylpyrazol-4-yl}-N-cyclopropylcarboxamide], the “cellular expression of the ABCA-1 gene” value is listed as “elevate cellular expression of the ABCA-1 gene”.

Turning to `CCc1c(C(=O)NCCC(C)C)cnn1-c1nc(-c2ccc(OC)cc2)cs1` [{5-ethyl-1-[4-(4-methoxyphenyl)(1,3-thiazol-2-yl)]pyrazol-4-yl}-N-(3-methylbutyl)carboxamide], the “cellular expression of the ABCA-1 gene” value was “elevate cellular expression of the ABCA-1 gene”.

Regarding `CCc1c(C(=O)NCCc2ccccc2)cnn1-c1nc(-c2ccc(C)cc2)cs1` [{5-ethyl-1-[4-(4-methylphenyl)(1,3-thiazol-2-yl)]pyrazol-4-yl}-N-(2-phenylethyl)carboxamide], the “cellular expression of the ABCA-1 gene” value is reported as “elevate cellular expression of the ABCA-1 gene”.

As for `Cc1c(C(=O)NCCc2ccccc2)cnn1-c1nc(-c2ccc(F)cc2)cs1` [{5-methyl-1-[4-(4-fluorophenyl)(1,3-thiazol-2-yl)]pyrazol-4-yl}-N-(2-phenylethyl)carboxamide], the “cellular expression of the ABCA-1 gene” value is recorded as “elevate cellular expression of the ABCA-1 gene”.

Turning to `CCCCNC(=O)c1cnn(-c2nc(-c3ccc(C)cc3)cs2)c1C` [{5-methyl-1-[4-(4-methylphenyl)(1,3-thiazol-2-yl)]pyrazol-4-yl}-N-butylcarboxamide], the “cellular expression of the ABCA-1 gene” value is given as “elevate cellular expression of the ABCA-1 gene”.

`CCCCCNC(=O)c1cnn(-c2nc(-c3ccc(C)cc3)cs2)c1C` [{5-methyl-1-[4-(4-methylphenyl)(1,3-thiazol-2-yl)]pyrazol-4-yl}-N-pentylcarboxamide]: the “cellular expression of the ABCA-1 gene” value was “elevate cellular expression of the ABCA-1 gene”.

Take “(2,4-difluorophenyl)-N-(4-naphthyl(1,3-thiazol-2-yl))carboxamide”: the “cellular expression of the ABCA-1 gene” value is given as “elevate cellular expression of the ABCA-1 gene”.

As to “(3-chlorobenzo[b]thiophen-2-yl)-N-(ethynylcyclohexyl)carboxamide”, the “cellular expression of the ABCA-1 gene” value is “elevate cellular expression of the ABCA-1 gene”.

For “N-(2-phenylcyclopropyl)piperidylcarboxamide”, the “cellular expression of the ABCA-1 gene” value is “elevate cellular expression of the ABCA-1 gene”.

For “N-(4-naphthyl(1,3-thiazol-2-yl))(4-phenylphenyl)carboxamide”, the “cellular expression of the ABCA-1 gene” value was “elevate cellular expression of the ABCA-1 gene”.

Turning to “N-(4-naphthyl(1,3-thiazol-2-yl))[3-(trifluoromethyl)phenyl]carboxamide”, the “cellular expression of the ABCA-1 gene” value is “elevate cellular expression of the ABCA-1 gene”.

For the compound “N-(4-naphthyl(1,3-thiazol-2-yl))[4-(trifluoromethoxy)phenyl]carboxamide”, the “cellular expression of the ABCA-1 gene” value was “elevate cellular expression of the ABCA-1 gene”.
